Reference: patent US20120083522A1, “MODULATION OF INFLAMMATORY RESPONSES BY FACTOR XI” (Isis Pharmaceuitcals, inc., priority 2009, published 2012)
In the oligonucleotide strings, read from the 5' end, every base follows the letter of its sugar. An asterisk marks phosphorothioate; unmarked linkages are phosphodiester. Other units and linkages are bracketed, terminal groups are in braces. A string of capitals states the bases alone. e = 2'-O-(2-methoxyethyl) (MOE); [5mC] = 5-methylcytosine; d = 2'-deoxy (DNA)

How the values were obtained:
[1] = system: Factor XI protein; assay: Cynomolgus monkeys: plasma Factor XI protein ELISA (Example 30); format: in vivo; conditions: for Inhibition of Factor XI protein relative to the PBS control: 25 mg/kg s.c., plasma ELISA
Procedure: (§1) Groups, each consisting of two male and two female monkeys, were injected subcutaneously with 25 mg/kg of ISIS 416850, ISIS 449709, ISIS 445522, ISIS 449710, ISIS 449707, ISIS 449711, ISIS 449708, 416858 and ISIS 445531. Antisense oligonucleotide was administered to the monkeys at 25 mg/kg three times per week for week 1 and 25 mg/kg twice per week for weeks 2 to 8. A control group, consisting of two male and two female monkeys was injected subcutaneously with PBS according to the same dosing regimen. Body weights were taken 14 days and 7 days before the start of treatment and were then measured weekly throughout the treatment period. Blood samples were collected 14 days and 5 days before the start of treatment and subsequently several times during the dosing regimen for measurement of various hematologic factors. On day 55, the monkeys were euthanized by exsanguination while under deep anesthesia, and organs harvested for further analysis.
Plasma samples from all monkey groups taken on different days were analyzed by a sandwich-style ELISA assay (Affinity Biologicals Inc.) using an affinity-purified polyclonal anti-Factor XI antibody as the capture antibody and a peroxidase-conjugated polyclonal anti-Factor XI antibody as the detecting antibody. Monkey plasma was diluted 1:50 for the assay. Peroxidase activity was expressed by incubation with the substrate o-phenylenediamine. The color produced was quantified using a microplate reader at 490 nm and was considered to be proportional to the concentration of Factor XI in the samples.
The results are presented in Table 148, expressed as percentage reduction relative to that of the PBS control.

[2] = system: Factor XI mRNA; assay: Cynomolgus monkeys, 25 mg/kg: liver Factor XI RNA analysis (Example 30); format: in vivo; conditions: for Factor XI mRNA in liver (in words): cynomolgus monkeys, day 55, in comparison to the PBS control
Procedure: as §1
On day 55, RNA was extracted from liver tissue for real-time PCR analysis of Factor XI using primer probe set LTS00301. Results are presented as percent inhibition of Factor XI, relative to PBS control.

[3] = system: human Factor XI mRNA; assay: Dose-dependent inhibition and IC50 in HepG2 cells, microwalk gapmers, electroporation (Example 16); format: cell-based
Procedure: These gapmers were tested at various doses in HepG2 cells. Cells were plated at a density of 20,000 cells per well and transfected using electroporation with 375 nM, 750 nM, 1,500 nM, 3,000 nM, 6,000 nM and 12,000 nM concentrations of antisense oligonucleotide, as specified in Table 54. After a treatment period of approximately 16 hours, RNA was isolated from the cells and Factor XI mRNA levels were measured by quantitative real-time PCR. Human Factor XI primer probe set RTS 2966 was used to measure mRNA levels. Factor XI mRNA levels were adjusted according to total RNA content, as measured by RIBOGREEN. Results are presented as percent inhibition of Factor XI, relative to untreated control cells.
ISIS 416850, ISIS 416858, ISIS 445522, and ISIS 445531 (see Table 52 above) were re-tested in vitro along with the microwalk gapmers under the same conditions described above.
The chimeric antisense oligonucleotides in Table 53 were designed as 3-8-3 MOE, 4-8-4 MOE, 2-10-2 MOE, 3-10-3 MOE, or 4-10-4 MOE gapmers. The 3-8-3 gapmer is 14 nucleotides in length, wherein the central gap segment is comprised of eight 2′-deoxynucleotides and is flanked on both sides (in the 5′ and 3′ directions) by wings comprising three nucleotides each. The 4-8-4 gapmer is 16 nucleotides in length, wherein the central gap segment is comprised of eight 2′-deoxynucleotides and is flanked on both sides (in the 5′ and 3′ directions) by wings comprising four nucleotides each. The 2-10-2 gapmer is 14 nucleotides in length, wherein the central gap segment is comprised of ten 2′-deoxynucleotides and is flanked on both sides (in the 5′ and 3′ directions) by wings comprising two nucleotides each. The 3-10-3 gapmer is 16 nucleotides in length, wherein the central gap segment is comprised of ten 2′-deoxynucleotides and is flanked on both sides (in the 5′ and 3′ directions) by wings comprising three nucleotides each. The 4-10-4 gapmer is 18 nucleotides in length, wherein the central gap segment is comprised of ten 2′-deoxynucleotides and is flanked on both sides (in the 5′ and 3′ directions) by wings comprising four nucleotides each. For each of the motifs (3-8-3, 4-8-4, 2-10-2, 3-10-3, and 4-10-4), each nucleotide in the 5′ wing segment and each nucleotide in the 3′ wing segment has a 2′-MOE modification. The internucleoside linkages throughout each gapmer are phosphorothioate (P═S) linkages. All cytidine residues throughout each gapmer are 5-methylcytidines. “Human Target start site” indicates the 5′-most nucleotide to which the gapmer is targeted in the human sequence. “Human Target stop site” indicates the 3′-most nucleotide to which the gapmer is targeted in the human sequence. Each gapmer listed in Table 53 is targeted to SEQ ID NO: 1 (GENBANK Accession No. NM_000128.3). Each gapmer is Table 53 is also fully cross-reactive with the rhesus monkey Factor XI gene sequence, designated herein as SEQ ID NO: 274 (exons 1-15 GENBANK Accession No. NW—001118167.1). ‘Rhesus monkey start site’ indicates the 5′-most nucleotide to which the gapmer is targeted in the rhesus monkey sequence. ‘Rhesus monkey stop site’ indicates the 3′-most nucleotide to which the gapmer is targeted to the rhesus monkey sequence.
The first two listed gapmers in Table 54 are the original gapmers (ISIS 416850 and ISIS 416858) from which the remaining gapmers were designed via microwalk and are designated by an asterisk.

[4] = system: IL-1β, IL-6, IFN-γ, TNF-α, IL-8, MIP-1α, MCP-1, MIP-10, RANTES; assay: Cynomolgus monkeys: cytokine and chemokine assays (Example 30); format: in vivo
Procedure: as §1
Blood samples obtained from all monkey groups were sent to Pierce Biotechnology (Woburn, Mass.) for measurements of chemokine and cytokine levels. Levels of IL-1β, IL-6, IFN-γ, and TNF-α were measured using the respective primate antibodies and levels of IL-8, MIP-1α, MCP-1, MIP-10 and RANTES were measured using the respective cross-reacting human antibodies. Measurements were taken 14 days before the start of treatment and on day 55, when the monkeys were euthanized.

[5] = day −14 (before start of treatment)

Substance	Factor XI mRNA in liver (in words) [2]	IL-1β level ([4]; 25 mg/kg s.c., day 55) [pg/mL]	MIP-1β level ([4]; 25 mg/kg s.c., day 55) [pg/mL]	IL-1β level [4, 5] [pg/mL]	MIP-1β level [4, 5] [pg/mL]	also measured
449711 (antisense eA*e[5mC]*dA*dG*dT*dT*dT*d[5mC]*dT*dG*dG*d[5mC]*eA*eG) [compound 449711]	–	–	–	–	–	Inhibition of Factor XI protein relative to the PBS control ([1]; Day 10): 5%; Inhibition of Factor XI protein relative to the PBS control ([1]; Day 17): 3%; Inhibition of Factor XI protein relative to the PBS control ([1]; Day 24): 6%; Inhibition of Factor XI protein relative to the PBS control ([1]; Day 31): 9%; Inhibition of Factor XI protein relative to the PBS control ([1]; Day 38): 2%; Inhibition of Factor XI protein relative to the PBS control ([1]; Day 45): 4%; Inhibition of Factor XI protein relative to the PBS control ([1]; Day 52): 3%; Inhibition of Factor XI protein relative to the PBS control ([1]; Day 55): 5%; Inhibition of Factor XI protein relative to the PBS control ([1]; Day −5): 1%; Inhibition of Factor XI protein relative to the PBS control ([1]; Day −14): 0%; % inhibition of Factor XI mRNA in liver relative to the PBS control ([2]; 25 mg/kg s.c., day 55, liver): 0%; percent inhibition of Factor XI mRNA ([3]; electroporation, 375 nM): 6%; percent inhibition of Factor XI mRNA ([3]; electroporation, 750 nM): 14%; percent inhibition of Factor XI mRNA ([3]; electroporation, 1,500 nM): 1%; percent inhibition of Factor XI mRNA ([3]; electroporation, 3,000 nM): 7%; percent inhibition of Factor XI mRNA ([3]; electroporation, 6,000 nM): 32%; percent inhibition of Factor XI mRNA ([3]; electroporation, 12,000 nM): 52%
ISIS 449707: microwalk gapmer of Table 53 (antisense e[5mC]*eA*e[5mC]*eA*dG*dT*dT*dT*d[5mC]*dT*dG*dG*e[5mC]*eA*eG*eG)	significant reduction of Factor XI mRNA	97	49	115	13	–
ISIS 449708: microwalk gapmer of Table 53 (antisense eA*e[5mC]*eA*dG*dT*dT*dT*d[5mC]*dT*dG*dG*e[5mC]*eA*eG)	significant reduction of Factor XI mRNA	131	128	35	19	–
ISIS 449709: microwalk gapmer of Table 53 (antisense eG*e[5mC]*eA*e[5mC]*dA*dG*dT*dT*dT*d[5mC]*dT*dG*dG*d[5mC]*eA*eG*eG*e[5mC])	significant reduction of Factor XI mRNA	181	47	137	14	Factor XI protein levels (in words) ([1]; cynomolgus monkeys, Example 30): time-dependent decrease in protein levels
ISIS 449710: microwalk gapmer of Table 53 (antisense e[5mC]*eA*e[5mC]*dA*dG*dT*dT*dT*d[5mC]*dT*dG*dG*d[5mC]*eA*eG*eG)	significant reduction of Factor XI mRNA	286	53	271	18	–
